Test results taken from ChEMBL document CHEMBL1144787, “Insect antifeedant sesquiterpene acetals from the liverwort Lepidolaena clavigera. 2. structures, artifacts, and activity” (J Nat Prod, 2008).

Key:
[1] = Antifeedant activity in Anthrenocerus australis larvae assessed as loss in wool weight at 0.05% w/w relative to control; format: functional
[2] = Antifeedant activity in Tineola bisselliella larvae assessed as loss in wool weight at 0.1% w/w relative to control; format: functional
[3] = Antifeedant activity in Anthrenocerus australis larvae assessed as loss in wool weight at 0.1% w/w relative to control; format: functional
[4] = Cytotoxicity against monkey BSC cells assessed as zone of inhibition at 30 ug/disc; format: cell-based, Macaca mulatta; settings: rhesus monkey
Tineola bisselliella [5] = assay: Survival of Tineola bisselliella larvae at 0.1% w/w relative to control; format: functional
Eurhopalus australis [6] = assay: Survival of Anthrenocerus australis larvae at 0.05% w/w relative to control; format: functional
[7] = Antifeedant activity in Anthrenocerus australis larvae assessed as loss in wool weight at 0.025% w/w relative to control; format: functional
Eurhopalus australis [8] = assay: Survival of Anthrenocerus australis larvae at 0.1% w/w relative to control; format: functional
Eurhopalus australis [9] = assay: Survival of Anthrenocerus australis larvae at 0.025% w/w relative to control; format: functional
Eurhopalus australis [10] = assay: Survival of Anthrenocerus australis larvae at 0.01% w/w relative to control; format: functional
Tineola bisselliella [11] = assay: Antifeedant activity in Tineola bisselliella larvae assessed as loss in wool weight at 0.01% w/w relative to control; format: functional
Tineola bisselliella [12] = assay: Survival of Tineola bisselliella larvae at 0.01% w/w relative to control; format: functional
[13] = Antifeedant activity in Anthrenocerus australis larvae assessed as loss in wool weight at 0.01% w/w relative to control; format: functional
[14] = Cytotoxicity against monkey BSC cells assessed as zone of inhibition at 60 ug/disc; format: cell-based, Macaca mulatta; settings: rhesus monkey

| Compound | Activity [1] [%] | Activity [2] [%] | Activity [3] [%] | inhibition zone (IZ) [4] [mm] | survival at 0.1 % strength (Tineola bisselliella [5]) [%] | survival at 0.05 % strength (Eurhopalus australis [6]) [%] | Activity [7] [%] | survival at 0.1 % strength (Eurhopalus australis [8]) [%] | survival at 0.025 % strength (Eurhopalus australis [9]) [%] | survival at 0.01 % strength (Eurhopalus australis [10]) [%] | Activity (Tineola bisselliella [11]) [%] | survival at 0.01 % strength (Tineola bisselliella [12]) [%] | Activity [13] [%] | inhibition zone (IZ) [14] [mm] |
| --- | --- | --- | --- | --- | --- | --- | --- | --- | --- | --- | --- | --- | --- | --- |
| CC(=O)O[C@H]1O[C@@H]2C=C(C)[C@H]3C[C@@H]2[C@@]13CC(=O)C=C(C)C [CLAVIGERIN B] | -79 | -74 | -78 | 1 | 27 | 98 | -34 | 95 | 98 |  |  |  |  |  |
| CC(=O)OC(C(=O)C=C(C)C)[C@]12[C@@H](OC(C)=O)O[C@@H]3C=C(C)[C@H]1C[C@@H]32 (stereo partly drawn) [CLAVIGERIN A] |  | 2 |  | 1 | 95 |  |  |  |  |  |  |  |  |  |
| CC(=O)O[C@H]1O[C@@H]2C=C(C)[C@H]3C[C@@H]2[C@@]13CC(=O)CC(C)C [CLAVIGERIN C] | -62 | -95 | -86 | > 4 | 5 | 97 | -50 | 96 | 98 |  |  |  |  |  |
| CC1(C)C(C=C(Cl)Cl)C1C(=O)OCc1cccc(Oc2ccccc2)c1 (stereo not drawn) [PERMETHRIN] |  |  |  |  |  |  |  |  |  | 96 | -100 | 0 | -100 |  |
| CO[C@H]1O[C@@H]2C=C(C)[C@H]3C[C@@H]2[C@@]13CC(=O)CC(C)C [METHOXY CLAVIGERIN C] |  | -12 |  |  | 86 |  |  |  |  |  |  |  |  | 1 |
